Data: PubChem BioAssay AID248 (DTP/NCI, 2004)
“And” between values parts separate entries of the source, which are not always exact repeats. Identical values can stand only once. Toxic doses and inconclusive results are not listed. No stated cut-off is given here; in the data, active means T/C of 150% or more; inactive means T/C below 125%.

System: L1210 leukemia ip in BDF1 mice, survival T/C
Test: NCI In Vivo Anticancer Drug Screen. Data for tumor model L1210 Leukemia (intraperitoneal) in B6D2F1 (BDF1) mice
Details: endpoint: mean survival time, higher = longer survival
Method in brief: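 Each compound was tested against a transplantable tumor grown in mice. The endpoint was survival, with treated animals benchmarked against vehicle controls as a simple ratio.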

[1] = dose: 100.0 mg/kg/injection, schedule: Q01DX009 (ip), vehicle: Klucel (hydroxypropylcellulose) (HPC)
[2] = dose: 200.0 mg/kg/injection, schedule: Q01DX009 (ip), vehicle: Klucel (hydroxypropylcellulose) (HPC)
[3] = dose: 400.0 mg/kg/injection, schedule: Q01DX009 (ip), vehicle: Klucel (hydroxypropylcellulose) (HPC)
[4] = dose: 100.0 mg/kg/injection, schedule: Q01DX001 (ip), vehicle: saline
[5] = dose: 75.0 mg/kg/injection, schedule: Q01DX001 (ip), vehicle: saline
[6] = dose: 75.0 mg/kg/injection, schedule: Q01DX009 (ip), vehicle: saline
[7] = dose: 150.0 mg/kg/injection, schedule: Q01DX001 (ip), vehicle: saline
[8] = dose: 150.0 mg/kg/injection, schedule: Q01DX009 (ip), vehicle: saline
[9] = dose: 300.0 mg/kg/injection, schedule: Q01DX001 (ip), vehicle: saline
[10] = dose: 100.0 mg/kg/injection, schedule: Q01DX001 (ip), vehicle: carboxymethylcellulose (CMC)
[11] = dose: 200.0 mg/kg/injection, schedule: Q01DX001 (ip), vehicle: carboxymethylcellulose (CMC)
[12] = dose: 100.0 mg/kg/injection, schedule: Q01DX001 (ip), vehicle: saline with Tween-80
[13] = dose: 100.0 mg/kg/injection, schedule: Q04DX002 (ip), vehicle: saline with Tween-80
[14] = dose: 200.0 mg/kg/injection, schedule: Q01DX001 (ip), vehicle: saline with Tween-80
[15] = dose: 200.0 mg/kg/injection, schedule: Q04DX002 (ip), vehicle: saline with Tween-80
[16] = dose: 400.0 mg/kg/injection, schedule: Q01DX001 (ip), vehicle: saline with Tween-80
[17] = dose: 400.0 mg/kg/injection, schedule: Q04DX002 (ip), vehicle: saline with Tween-80
[18] = dose: 100.0 mg/kg/injection, schedule: Q04DX003 (ip), vehicle: Klucel (hydroxypropylcellulose) (HPC)
[19] = dose: 200.0 mg/kg/injection, schedule: Q04DX003 (ip), vehicle: Klucel (hydroxypropylcellulose) (HPC)
[20] = dose: 400.0 mg/kg/injection, schedule: Q04DX003 (ip), vehicle: Klucel (hydroxypropylcellulose) (HPC)
[21] = dose: 100.0 mg/kg/injection, schedule: Q04DX003 (ip), vehicle: saline with Tween-80
[22] = dose: 200.0 mg/kg/injection, schedule: Q04DX003 (ip), vehicle: saline with Tween-80
[23] = dose: 100.0 mg/kg/injection, schedule: Q01DX001 (ip), vehicle: other
[24] = dose: 200.0 mg/kg/injection, schedule: Q01DX001 (ip), vehicle: other
[25] = dose: 200.0 mg/kg/injection, schedule: Q01DX001 (ip), vehicle: saline
[26] = dose: 400.0 mg/kg/injection, schedule: Q01DX001 (ip), vehicle: saline

Measured: T/C

CCN=C=NCCCN(C)C
inactive: dose: 20.0 mg/kg/injection, schedule: Q01DX009 (ip), vehicle: saline 107 % of control | dose: 20.0 mg/kg/injection, schedule: Q04DX003 (ip), vehicle: saline 100 % of control | dose: 40.0 mg/kg/injection, schedule: Q01DX009 (ip), vehicle: saline 114 % of control | dose: 40.0 mg/kg/injection, schedule: Q04DX003 (ip), vehicle: saline 109 % of control | dose: 80.0 mg/kg/injection, schedule: Q04DX003 (ip), vehicle: saline 112 % of control

CCOc1ccc(/C=C\C(=O)O)cc1
inactive: [1] 97 % of control | [2] 102 % of control | [3] 107 % of control

CC1(C)N=C(N)N=C(N)N1c1cccc(OCCCC#N)c1
inactive: [4] 101 % of control

CCCCCCCNc1ccc(C(=O)O)cc1
inactive: dose: 37.5 mg/kg/injection, schedule: Q01DX009 (ip), vehicle: saline 105 % of control | [5] 93 % of control | [6] 94 % of control | dose: 75.0 mg/kg/injection, schedule: Q04DX003 (ip), vehicle: saline 105 % of control | [7] 104 % of control | [8] 98 % of control | dose: 150.0 mg/kg/injection, schedule: Q04DX003 (ip), vehicle: saline 109 % of control | [9] 102 % of control | dose: 300.0 mg/kg/injection, schedule: Q04DX003 (ip), vehicle: saline 102 % of control

COc1ccc(O)c(/C=C\C=O)c1
inactive: [10] 100 % of control | [11] 100 % of control | dose: 400.0 mg/kg/injection, schedule: Q01DX001 (ip), vehicle: carboxymethylcellulose (CMC) 106 % of control

CC(C)(C)NC(=O)C1CCCC(C(=O)NC(C)(C)C)C1 (stereo not drawn)
inactive: dose: 200.0 mg/kg/injection, schedule: Q04DX003 (ip), vehicle: saline 88 % of control | dose: 400.0 mg/kg/injection, schedule: Q04DX003 (ip), vehicle: saline 88 % of control

O=C(/C=C/c1ccccc1)NC(=S)Nc1ccc(O)cc1
inactive: [12] 96 % of control | dose: 100.0 mg/kg/injection, schedule: Q01DX009 (ip), vehicle: saline with Tween-80 95 % of control and 107 % of control | [13] 111 % of control and 88 % of control | [14] 98 % of control | dose: 200.0 mg/kg/injection, schedule: Q01DX009 (ip), vehicle: saline with Tween-80 96 % of control and 92 % of control | [15] 95 % of control and 111 % of control | [16] 96 % of control | dose: 400.0 mg/kg/injection, schedule: Q01DX009 (ip), vehicle: saline with Tween-80 101 % of control | [17] 95 % of control

COC(=O)C1C=CCC2C(=O)C=C(C)C(=O)C12C (stereo not drawn)
inactive: [1] 94 % of control | [18] 96 % of control | [2] 92 % of control | [19] 100 % of control | [3] 97 % of control | [20] 96 % of control

Cn1c(=O)c2[nH]cnc2n(C)c1=O (tested in a mixture with another compound)
inactive: [21] 97 % of control | [22] 96 % of control

COC(=O)C(C)C(C)=O (stereo not drawn)
inactive: dose: 100.0 mg/kg/injection, schedule: Q01DX009 (sc), vehicle: olive oil, sesame oil, peanut oil 106 % of control | dose: 100.0 mg/kg/injection, schedule: Q04DX003 (sc), vehicle: olive oil, sesame oil, peanut oil 98 % of control | dose: 200.0 mg/kg/injection, schedule: Q01DX009 (sc), vehicle: olive oil, sesame oil, peanut oil 107 % of control | dose: 200.0 mg/kg/injection, schedule: Q04DX003 (sc), vehicle: olive oil, sesame oil, peanut oil 101 % of control | dose: 400.0 mg/kg/injection, schedule: Q01DX009 (sc), vehicle: olive oil, sesame oil, peanut oil 106 % of control | dose: 400.0 mg/kg/injection, schedule: Q04DX003 (sc), vehicle: olive oil, sesame oil, peanut oil 98 % of control

Cn1nc(C(N)=O)c2c(N)ncnc21
inactive: dose: 7.5 mg/kg/injection, schedule: Q04DX002 (ip), vehicle: Klucel (hydroxypropylcellulose) (HPC) 96 % of control | dose: 15.0 mg/kg/injection, schedule: Q01DX001 (ip), vehicle: carboxymethylcellulose (CMC) 98 % of control | dose: 15.0 mg/kg/injection, schedule: Q04DX002 (ip), vehicle: Klucel (hydroxypropylcellulose) (HPC) 92 % of control | dose: 30.0 mg/kg/injection, schedule: Q01DX001 (ip), vehicle: carboxymethylcellulose (CMC) 102 % of control | dose: 30.0 mg/kg/injection, schedule: Q04DX002 (ip), vehicle: Klucel (hydroxypropylcellulose) (HPC) 96 % of control

COc1ccc2ccc(=O)oc2c1CC=C(C)C
inactive: [23] 98 % of control | [24] 93 % of control | dose: 400.0 mg/kg/injection, schedule: Q01DX001 (ip), vehicle: other 101 % of control

Cc1c(C)c(CC#N)c(C)c(C)c1CC#N
inactive: [1] 86 % of control | [18] 91 % of control | [2] 88 % of control | [19] 88 % of control | [20] 94 % of control

Cc1cc2ccccc2cn1
inactive: dose: 50.0 mg/kg/injection, schedule: Q01DX001 (ip), vehicle: other 103 % of control | [23] 101 % of control | [21] 96 % of control | [24] 95 % of control | [22] 103 % of control

O=C1c2ccccc2C(=O)N1/N=C/c1cc(Cl)cc(Cl)c1O
inactive: [5] 91 % of control | [7] 93 % of control | [9] 93 % of control

O=C1NC(=S)SC1C(Cc1ccccc1)Cc1ccccc1 (stereo not drawn)
inactive: [4] 97 % of control | [25] 97 % of control | [26] 101 % of control

Cc1cccc(NC(=S)NC(=O)CCc2ccccc2)c1C
inactive: dose: 25.0 mg/kg/injection, schedule: Q01DX009 (ip), vehicle: saline with Tween-80 94 % of control and 88 % of control | dose: 50.0 mg/kg/injection, schedule: Q01DX009 (ip), vehicle: saline with Tween-80 94 % of control and 88 % of control | [12] 95 % of control | [13] 95 % of control and 90 % of control | [21] 86 % of control | [14] 98 % of control | [15] 93 % of control | [22] 89 % of control | [16] 97 % of control | [17] 93 % of control and 102 % of control | dose: 400.0 mg/kg/injection, schedule: Q04DX003 (ip), vehicle: saline with Tween-80 86 % of control

COC1=C2C=[N+](C)C3C(=C2C=CC1OC)Cc1cc2c(cc13)OCO2 (stereo not drawn)
inactive: dose: 50.0 mg/kg/injection, schedule: Q01DX001 (ip), vehicle: carboxymethylcellulose (CMC) 104 % of control | [10] 107 % of control | [11] 102 % of control

O=C1CCNc2cc(Cl)ccc21
inactive: dose: 100.0 mg/kg/injection, schedule: Q01DX001 (ip), vehicle: Klucel (hydroxypropylcellulose) (HPC) 96 % of control | [1] 98 % of control | dose: 200.0 mg/kg/injection, schedule: Q01DX001 (ip), vehicle: Klucel (hydroxypropylcellulose) (HPC) 95 % of control | [2] 95 % of control | dose: 400.0 mg/kg/injection, schedule: Q01DX001 (ip), vehicle: Klucel (hydroxypropylcellulose) (HPC) 104 % of control

O=C(O)c1ccccc1C(=O)Nc1ccc(O)cc1
inactive: [6] 102 % of control | [8] 100 % of control | dose: 300.0 mg/kg/injection, schedule: Q01DX009 (ip), vehicle: saline 117 % of control

O=C(O)C(SC(C(=O)O)c1ccccc1)c1ccccc1 (stereo not drawn)
inactive: dose: 75.0 mg/kg/injection, schedule: Q04DX003 (ip), vehicle: saline with Tween-80 94 % of control | [4] 93 % of control | dose: 150.0 mg/kg/injection, schedule: Q04DX003 (ip), vehicle: saline with Tween-80 96 % of control | [25] 104 % of control | dose: 300.0 mg/kg/injection, schedule: Q04DX003 (ip), vehicle: saline with Tween-80 104 % of control | [26] 98 % of control
